From US5585353A, “Antibiotic peptides containing D-amino acids” (The Rockefeller University, priority 1994, dated 1996) come the findings set out here.

What all share (assay type): cell-based
Data set [1] deals with S. pyogenes. In words: inhibition zone assay, lethal concentration. As to conditions: thin agarose plates. As to the method:
(§1) Thin agar or agarose plates (8.5 cm diameter) were prepared with 6 ml of rich medium containing 100 ug/ml of streptomycin and 2×10^5 viable cells of a test organism resistant to streptomycin. Wells of 3.5 mm diameter were punched in the plates and 3 ul of serially diluted samples were placed in the wells. The diameters of the zones of inhibition around the wells were measured after overnight incubation at 30° or 37° C. For each peptide the squares of the zone diameters were plotted against the logarithm of the concentration, and from the slopes and intercepts the lethal concentrations were calculated as described by Hultmark (1983) EMBO J. 2, 571-76 or Hultmark et al (1982) Eur. J. Biochem. 127 207-217 each of which being incorporated herein by reference.
(§2) Lethal Concentrations calculated from inhibition zones on thin agarose
(§3) S. aureus Cowan 1; Strep: S. pyogenes; SRC: Sheep red cells.; *all amino

Data set [2] has as its system B. subtilis Bs11. Description: inhibition zone assay, lethal concentration. As to conditions: for Lethal Concentrations Bs11 +ME: B. subtilis Bs11, plates prepared with medium E; for Lethal Concentrations Bs11: B. subtilis Bs11, thin agarose plates. As to the method: as §1, §2
(§4) aeruginosa; Bs11: B. subtilis; +ME: plates prepared with medium E; Staph: […]

Data set [3] deals with Sheep red cells. In words: inhibition zone assay, lethal concentration on sheep red cells. Conditions: thin agarose plates. As to the method: as §1, §2, §3
Data set [4] relates to S. aureus Cowan 1. Description: inhibition zone assay, lethal concentration. Conditions: S. aureus Cowan 1, thin agarose plates. How it is done:
as §1, §2
aeruginosa; Bs11: B. subtilis; +ME: plates prepared with medium E; Staph:
as §3

Data set [5] concerns P. aeruginosa OT97. Description: inhibition zone assay, lethal concentration. As to conditions: P. aeruginosa OT97, thin agarose plates. How it is done: as §1, §2
(§5) plates seeded with the respective organisms. D21: E. coli; OT97: P.
as §4

In data set [6] the test system is E. coli D21. Description: inhibition zone assay, lethal concentration. As to conditions: E. coli D21, thin agarose plates. As to the method: as §1, §2, §5

Residues, ends and D or L forms follow the SMILES beside them. No end group written: not given here.

Turning to `CC[C@H](C)[C@H](NC(=O)CN)C(=O)NCC(=O)N[C@@H](C)C(=O)N[C@H](C(=O)N[C@@H](CC(C)C)C(=O)N[C@@H](CCCCN)C(=O)N[C@H](C(=O)N[C@@H](CC(C)C)C(=O)N[C@H](C(=O)N[C@H](C(=O)NCC(=O)N[C@@H](CC(C)C)C(=O)N1CCC[C@H]1C(=O)N[C@@H](C)C(=O)N[C@@H](CC(C)C)C(=O)N[C@H](C(=O)N[C@@H](CO)C(=O)N[C@@H](Cc1c[nH]c2ccccc12)C(=O)N[C@H](C(=O)N[C@@H](CCCCN)C(=O)N[C@@H](CCCNC(=N)N)C(=O)N[C@@H](CCCCN)C(=O)N[C@@H](CCCNC(=N)N)C(=O)N[C@@H](CCC(N)=O)C(=O)N[C@@H](CCC(N)=O)C(N)=O)[C@@H](C)CC)[C@@H](C)CC)[C@@H](C)O)[C@@H](C)O)C(C)C)C(C)C` [Compound 10, Melittin], in data set [1], the “Lethal Concentrations Strep” value was determined as 0.5 µM. Also, in data set [2], the “Lethal Concentrations Bs11 +ME” value is 0.3 µM and the “Lethal Concentrations Bs11” value was 0.2 µM. The “Lethal Concentrations SRC” value in data set [3] fell in the range of 4 to 8 µM. The “Lethal Concentrations Staph” value in data set [4] was 0.2 µM. The “Lethal Concentrations OT97” value in data set [5] is 3 µM. For the same compound, in data set [6], the “Lethal Concentrations D21” value was 0.8 µM.
For the compound “GIGKFLHSAKKFGKAFVGEIMNS-NH2 [Compound 8]”, the “Lethal Concentrations Strep” value in data set [1] was determined as 4 µM. Moreover, in data set [2], the “Lethal Concentrations Bs11 +ME” value stood at 8 µM and the “Lethal Concentrations Bs11” value was 3 µM. The “Lethal Concentrations SRC” value in data set [3] is 300 µM. Also, in data set [4], the “Lethal Concentrations Staph” value was 300 µM. Further, the “Lethal Concentrations OT97” value in data set [5] worked out at 30 µM. Besides, the “Lethal Concentrations D21” value in data set [6] came out at 4 µM.
For `CC[C@@H](C)[C@@H](NC(=O)CNC(=O)[C@@H](CCC(N)=O)NC(=O)CNC(=O)[C@H](NC(=O)[C@@H](CCCCN)NC(=O)[C@@H](CCC(=O)O)NC(=O)[C@H](NC(=O)[C@@H](CCCCN)NC(=O)[C@@H](CCCCN)NC(=O)[C@@H](Cc1ccccc1)NC(=O)[C@@H](CC(C)C)NC(=O)[C@@H](CCCCN)NC(=O)[C@@H](Cc1c[nH]c2ccccc12)NC(=O)[C@H](N)CCCCN)[C@H](C)CC)C(C)C)C(=O)NCC(=O)N[C@H](C)C(=O)N[C@@H](C(=O)N[C@H](CC(C)C)C(=O)N[C@H](CCCCN)C(=O)N[C@@H](C(=O)N[C@H](CC(C)C)C(=O)N[C@@H](C(=O)N[C@@H](C(=O)NCC(=O)N[C@H](CC(C)C)C(N)=O)[C@H](C)O)[C@H](C)O)C(C)C)C(C)C` [Compound 4], the “Lethal Concentrations SRC” value in data set [3] is 500 µM.
Turning to `CC[C@H](C)[C@H](NC(=O)CNC(=O)[C@H](CCC(N)=O)NC(=O)CNC(=O)[C@@H](NC(=O)[C@H](CCCCN)NC(=O)[C@H](CCC(=O)O)NC(=O)[C@@H](NC(=O)[C@H](CCCCN)NC(=O)[C@H](CCCCN)NC(=O)[C@H](Cc1ccccc1)NC(=O)[C@H](CC(C)C)NC(=O)[C@H](CCCCN)NC(=O)[C@H](Cc1c[nH]c2ccccc12)NC(=O)[C@@H](N)CCCCN)[C@@H](C)CC)C(C)C)C(=O)NCC(=O)N[C@@H](C)C(=O)N[C@H](C(=O)N[C@@H](CC(C)C)C(=O)N[C@@H](CCCCN)C(=O)N[C@H](C(=O)N[C@@H](CC(C)C)C(=O)N[C@H](C(=O)N[C@H](C(=O)NCC(=O)N[C@@H](CC(C)C)C(N)=O)[C@@H](C)O)[C@@H](C)O)C(C)C)C(C)C` [Compound 3], the “Lethal Concentrations SRC” value in data set [3] is over 200 µM.
As for `CC[C@H](C)[C@H](NC(=O)CNC(=O)[C@@H](NC(=O)[C@H](CCCCN)NC(=O)[C@H](CCCCN)NC(=O)[C@H](Cc1ccccc1)NC(=O)[C@H](CC(C)C)NC(=O)[C@H](CCCCN)NC(=O)[C@H](Cc1c[nH]c2ccccc12)NC(=O)[C@@H](N)CCCCN)[C@@H](C)CC)C(=O)NCC(=O)N[C@@H](C)C(=O)N[C@H](C(=O)N[C@@H](CC(C)C)C(=O)N[C@@H](CCCCN)C(=O)N[C@H](C(=O)N[C@@H](CC(C)C)C(=O)N[C@H](C(=O)N[C@H](C(=O)NCC(=O)N[C@@H](CC(C)C)C(=O)N1CCC[C@H]1C(=O)N[C@@H](C)C(=O)N[C@@H](CC(C)C)C(=O)N[C@H](C(=O)N[C@@H](CO)C(N)=O)[C@@H](C)CC)[C@@H](C)O)[C@@H](C)O)C(C)C)C(C)C` [Compound 6], the “Lethal Concentrations SRC” value in data set [3] was over 600 µM.
Same read-out and setting: as for `CC[C@@H](C)[C@@H](NC(=O)CNC(=O)[C@H](NC(=O)[C@@H](CCCCN)NC(=O)[C@@H](CCCCN)NC(=O)[C@@H](Cc1ccccc1)NC(=O)[C@@H](CC(C)C)NC(=O)[C@@H](CCCCN)NC(=O)[C@@H](Cc1c[nH]c2ccccc12)NC(=O)[C@H](N)CCCCN)[C@H](C)CC)C(=O)NCC(=O)N[C@H](C)C(=O)N[C@@H](C(=O)N[C@H](CC(C)C)C(=O)N[C@H](CCCCN)C(=O)N[C@@H](C(=O)N[C@H](CC(C)C)C(=O)N[C@@H](C(=O)N[C@@H](C(=O)NCC(=O)N[C@H](CC(C)C)C(=O)N1CCC[C@@H]1C(=O)N[C@H](C)C(=O)N[C@H](CC(C)C)C(=O)N[C@@H](C(=O)N[C@H](CO)C(N)=O)[C@H](C)CC)[C@H](C)O)[C@H](C)O)C(C)C)C(C)C` [Compound 7], the figure is over 400 µM.
For the compound `CC[C@@H](C)[C@@H](NC(=O)CN)C(=O)NCC(=O)N[C@H](CCCCN)C(=O)N[C@H](Cc1ccccc1)C(=O)N[C@H](CC(C)C)C(=O)N[C@H](Cc1c[nH]cn1)C(=O)N[C@H](CO)C(=O)N[C@H](C)C(=O)N[C@H](CCCCN)C(=O)N[C@H](CCCCN)C(=O)N[C@H](Cc1ccccc1)C(=O)NCC(=O)N[C@H](CCCCN)C(=O)N[C@H](C)C(=O)N[C@H](Cc1ccccc1)C(=O)N[C@@H](C(=O)NCC(=O)N[C@H](CCC(=O)O)C(=O)N[C@@H](C(=O)N[C@H](CCSC)C(=O)N[C@H](CC(N)=O)C(=O)N[C@H](CO)C(N)=O)[C@H](C)CC)C(C)C` [Compound 9] (HELM PEPTIDE1{G.[dI].G.[dK].[dF].[dL].[dH].[dS].[dA].[dK].[dK].[dF].G.[dK].[dA].[dF].[dV].G.[dE].[dI].[dM].[dN].[dS].[am]}$$$$V2.0), the “Lethal Concentrations Strep” value in data set [1] worked out at 3 µM. In data set [2], the “Lethal Concentrations Bs11 +ME” value is 4 µM and the “Lethal Concentrations Bs11” value worked out at 3 µM. Further, the “Lethal Concentrations SRC” value in data set [3] is over 400 µM. For the same compound, the “Lethal Concentrations Staph” value in data set [4] is 100 µM. Further, the “Lethal Concentrations OT97” value in data set [5] worked out at 30 µM. In addition, the “Lethal Concentrations D21” value in data set [6] came out at 1 µM.
